Results as given in US6060038A, “Radiolabeled farnesyl-protein transferase inhibitors” (Merck & Co., Inc., priority 1998, dated 2000).
Counter-ions that a name gives are not always drawn.

Legend:
FPTase = experiment: PET Imaging in Dogs: block of [^11 C]-Compound 1 radiotracer binding by infused FTI; type: in vivo, beagle dogs; conditions: 10 mpk infused over 5 minutes, radiotracer [^11 C]-Compound 1
Experimental: Kinetics of enzyme occupancy by an unlabeled FPTase inhibitor (test compound) is determined by this assay. Thus, FVB mice are injected the test compound at either 40 mpk or 10 mpk subcutaneously (0.1 mls). Thirty minutes prior to euthanasia, 3 nCi of tritiated farnesyl protein transferase inhibitor (radiotracer) was injected i.p. (0.2 mls 10% EtOH in 0.9% saline). Uninhibited binding of the radiotracer is determined by injection of the radiotracer in mice which have not received injection of the test compound. The mice are euthanized either 2 hours of 14 hours after injection of the test compound and lung, spleen, pancrease and blood are removed and processed as described above. Data are plotted as %-dose/g of tissue (wet weight). […]
Oxygen saturation of circulating blood is measured with a pulse oximeter (Nellcor Inc., Hayward, Calif.) placed on the tongue of the animal. […] EKG, heart rate, and core temperature are monitored continuously. […]
For uninhibited distribution of radiotracer, regions of interest (ROIs) are drawn on the reconstructed image includes the kidney cortex and a region of liver which is removed from the gallbladder images. […] Data are expressed as radioactivity per unit time per unit volume (μCi/cc/mCi injected dose). […]

[1] = Radiochemical decomposition of stored radiotracer samples; type: physicochemical; conditions: stored for up to 90 minutes in sterile glass vial; saline/sodium bicarbonate
Experimental: The container used for the drug is described above. It consists of a sterile, pyrogen free glass vial with a crimp-sealed aluminum cap surrounding a rubber stopper. Samples of the radiotracer have been stored for up to 90 minutes and analyzed for radiochemical decomposition.

radiochemical decomposition on storage [1]	Structure (SMILES)	block of radiotracer binding (FPTase)
	CCCC[C@H]1CN(c2cccc(C)c2C)C(=O)CN1Cc1cncn1Cc1ccc(C#N)cc1.O=C(O)C(F)(F)F.O=C(O)C(F)(F)F [Compound 3, 5(S)-n-Butyl-4-[1-(4-cyanobenzyl)imidazol-5-ylmethyl]-1-(2,3-dimethylphenyl)piperazin-2-one ditrifluoroacetic acid salt]	completely block radiotracer binding
No decomposition has been observed	[11CH3]S(=O)(=O)CC[C@H]1CN(c2cc(I)cc(CF)c2)C(=O)CN1Cc1cncn1Cc1ccc(C#N)cc1 [[^11 C]-Compound 1, (S)-1-(3-iodo-5-fluoromethylphenyl)-4-[1-(4-cyanobenzyl)-5-imidazolylmethyl]-5-[2-(^11 C-methanesulfonyl)ethyl]-2-piperazinone dihydrochloride]	
